These are literature values, as cited in patent US20240307352A1, “SACUBITRIL VALSARTAN SODIUM SUSTAINED-RELEASE COMPOSITION, AND PREPARATION METHOD THEREFOR AND USE THEREOF” (SHANGHAI AURORA BIOTECHNOLOGY CO., LTD., priority 2021, published 2024).

In this series the test system is patients with heart failure with reduced ejection fraction (HF-REF). The following applies: compared to enalapril-treated counterpart.

For “octadecasodium hexa(4-{[(1S,3R)-1-([1,1′-biphenyl)-4-ylmethyl)-4-ethoxy-3-methyl-4-oxobutyl]amino}-4-oxobutyric acid) hexa(N-pentanoyl-N-{[2′-(1H-tetrazol-5-yl)biphenyl-4-yl]methyl}-L-valine)-hydrate (1/15) [LCZ696]”, the “Reduction in death risk” value is on record as 20% and the “Reduction in hospitalization risk” value is 21%.
